Test results taken from patent US20170107207A1, “AMINOPYRAZOLONE DERIVATIVE” (DAIICHI SANKYO COMPANY, LIMITED, priority 2014, published 2017).

How the values were obtained:
[1] = test system: human lymphoma cell line RAMOS cells; assay: Cell growth inhibition test using RAMOS cell, MTT assay; format: cell-based; conditions: 50% growth inhibition concentration
Method in brief: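 Cells in RPMI1640 with 10% FBS were exposed to compound (DMSO ≤1%) for 3 days at 37° C, 5% CO2. Viability was read by MTT (4 h, formazan in DMSO, OD 540/660 nm) against a day-0 plate; GI50 was interpolated from T/C % growth rates.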

[2] = test system: Lymphoma cell line RAMOS cells; assay: Antitumor test, mouse subcutaneous transplantation model, RAMOS; format: in vivo; conditions: RAMOS in SCID mice, 4 consecutive days, tumor measured next day
Excerpt: (§1) In vivo test of test compound: Antitumor test using mouse subcutaneous transplantation model
Lymphoma cell line RAMOS cells were suspended in a culture flask and then centrifuged to remove a supernatant. The cells were washed with PBS (phosphate buffered saline, Life Technologies Corp.) twice and then suspended in PBS. The cell suspension was subcutaneously transplanted at a dose of 1×10^7 cells/mouse to the right axillary regions of 6-week-old SCID mice (FOX CHASE SCID C.B.17/Icr-scid/scidJcl, CLEA Japan, Inc.). The test was conducted by using cancer-bearing mice having an estimated tumor volume (major axis×minor axis×minor axis/2) of 200 to 350 mm3 and grouping the cancer-bearing mice without significant difference in average estimated tumor volume from a negative control group. The compound of Example 113 was suspended in a solvent (EtOH/DMA/Solutol HS-15/PEG400/5% HMPC). The suspension was orally administered to each mouse twice a day (BID) at a dose of 25, 50, 100, or 200 mg/kg for 4 consecutive days. On the next day, the tumor sizes were measured.
(§2) The rate of tumor growth inhibition was also calculated in this test according to the following expression and is shown in a table.
(§3) Rate of tumor growth inhibition (%)=100−(Average value of the tumor volumes of the test compound administration group)/(Average value of the tumor volumes of the vehicle administration group)×100.

[3] = test system: Liver cancer cell line HUH-7 cells; assay: Antitumor test, mouse subcutaneous transplantation model, HUH-7; format: in vivo; conditions: HUH-7 in nude mice, 4 consecutive days, tumor measured three days after final administration
Excerpt: as §1
Liver cancer cell line HUH-7 cells were dissociated from a culture flask by trypsin treatment, then suspended in an RPMI1640 medium containing 10% FBS, and then centrifuged to remove the supernatant. The cells were washed with PBS twice and then suspended in BD Matrigel Basement Membrane Matrix (manufactured by BD Biosciences). The cell suspension was subcutaneously transplanted at a dose of 5×10^6 cells/mouse to the right axillary regions of 6-week-old nude mice (CAnN.Cg-Foxn1[nu]/CrlCrlj[Foxn1nu/Foxn1nu], Charles River Laboratories Japan, Inc.). The test was conducted by using cancer-bearing mice having an estimated tumor volume (major axis×minor axis×minor axis/2) of 70 to 180 mm3 and grouping the cancer-bearing mice without significant difference in average estimated tumor volume from a negative control group. The compound of Example 113 was suspended in solvent (EtOH/DMA/Solutol HS-15/PEG400/5% HMPC). The suspension was orally administered to each mouse twice a day (BID) at a dose of 75 or 150 mg/kg for 4 consecutive days. Three days after the final administration date, the tumor sizes were measured.
The rate of tumor growth inhibition was also calculated in this test according to the following expression and is shown in a table. […]

[4] = test system: Lung cancer cell line COR-L23 cells; assay: Antitumor test, mouse subcutaneous transplantation model, COR-L23; format: in vivo; conditions: COR-L23 in nude mice, 4 consecutive days, tumor measured next day
Excerpt: as §1
Lung cancer cell line COR-L23 cells were dissociated from a culture flask by trypsin treatment, then suspended in an RPMI1640 medium containing 10% FBS, and then centrifuged to remove the supernatant. The cells were washed with this medium twice and then suspended in PBS. The cell suspension was subcutaneously transplanted at a dose of 5×10^6 cells/mouse to the right axillary regions of 6-week-old nude mice (BALB/cAJc1-nu/nu, CLEA Japan, Inc.). The test was conducted by using cancer-bearing mice having an estimated tumor volume (major axis×minor axis×minor axis/2) of 100 to 150 mm3 and grouping the cancer-bearing mice without significant difference in average estimated tumor volume from a negative control group. The compound of Example 113 was suspended in solvent (EtOH/DMA/Solutol HS-15/PEG400/5% HMPC). The suspension was orally administered to each mouse once a day (QD) at a dose of 75, 150, or 300 mg/kg for 4 consecutive days. On the next day, the tumor sizes were measured.
as §2, §3

GI50 [1]: 47 nM
SMILES: CCOc1cc(F)c(Cl)cc1C(=O)NCC(C)(C)CC(=O)Nc1c(COC)n(C)n(-c2ccccc2)c1=O [Example 113, 5-Chloro-2-ethoxy-4-fluoro-N-(4-{[5-(methoxymethyl)-1-methyl-3-oxo-2-phenyl-2,3-dihydro-1H-pyrazol-4-yl]amino}-2,2-dimethyl-4-oxobutyl)benzamide]
Rate of tumor growth inhibition (%) ([2]; 25 mg/kg orally BID): 35%
Rate of tumor growth inhibition (%) ([2]; 50 mg/kg orally BID): 56%
Rate of tumor growth inhibition (%) ([2]; 100 mg/kg orally BID): 72%
Rate of tumor growth inhibition (%) ([2]; 200 mg/kg orally BID): 75%
Rate of tumor growth inhibition (%) ([3]; 75 mg/kg orally BID): 46%
Rate of tumor growth inhibition (%) ([3]; 150 mg/kg orally BID): 63%
Rate of tumor growth inhibition (%) ([4]; 75 mg/kg orally QD): 39%
Rate of tumor growth inhibition (%) ([4]; 150 mg/kg orally QD): 52%
Rate of tumor growth inhibition (%) ([4]; 300 mg/kg orally QD): 81%
